Laboratory results taken from publication PMC8165439, “Chymase Dependent Pathway of Angiotensin II Generation and Rapeseed Derived Peptides for Antihypertensive Treatment of Spontaneously Hypertensive Rats” (Frontiers in Pharmacology, 2021).

Key:
Format in all cases: in vivo, rat
[1] = system: spontaneously hypertensive rats (SHR); assay: Plasma and urine parameters during chronic treatment; conditions: mean ± SEM
Protocol: (§1) Systolic and diastolic blood pressure (SBP and DBP, respectively) and heart rate (HR) were measured in conscious unrestrained rats by telemetry technique, once a week for 24 h. 24 hour observations in metabolic cages (Tecniplast S. p.A. Buguggiate, Italy) were performed weekly. The diuresis, weight of feces, food and water intake were measured; urine and blood samples were collected on day 0, 7th and 14th, and were centrifuged at 1200 g (blood for 15 min and urine for 5 min), then the samples were stored at –80°C until analysis.
(§2) On day 0 all animals received saline (0.9% NaCl) and then, for 14 consecutive days, the substance tested. Chymostatin (CH, 2 mg/kg/day) was dissolved in DMSO and then diluted with PBS (final concentration of DMSO was 0.15%). Peptides RIY (7.5 mg/kg/day) and VWIS (12.5 mg/kg/day) were dissolved in saline (0.9% NaCl, S). The substances were administered through the femoral vein during 10 min in the volume of 0.5 ml to young SHR (infusion rate: 3 ml/h) and 1 ml to adult rats (infusion rate: 6 ml/h). Control rats received solvents (either DMSO or saline) in the same volume.
(§3) Urine volume was determined by gravimetric method. Sodium and potassium concentration in urine and plasma were measured by flame photometry (PFP7/C, Jenway Ltd, Stone, United Kingdom). Urine and plasma osmolality were measured by freezing point depression (Osmomat® 030 M, Gonotec, Berlin, Germany). These parameters were used to determine the excretion rates of total solutes (UosmV), sodium (UNaV) and potassium (UKV). Commercially available ELISA kits were used to measure nitric oxide metabolites (NOx, SunRed, Shanghai) and albumin (Albumin, ICL, Portland) concentration in urine. Excretion rate of NOx (UNOxV) and albumin (UAE) were calculated.

[2] = system: anesthetized spontaneously hypertensive rats (SHR); assay: Acute infusion of chymostatin to anesthetized rats, mean arterial blood pressure; conditions: anesthetized adult SHR, chymostatin 2 mg/kg iv infusion 1 h, n = 7; decrease observed 30 min after cessation of infusion
Protocol: In acute experiments rats were anesthetized with intraperitoneal (ip) sodium thiopental (100 mg/kg; Sandoz GmbH, Kundl, Austria), which provided stable anesthesia for about 4 h. All surgical preparations were already described in detail ([Gawrys et al., 2014]; [Badzynska et al., 2020]). Throughout the experiment the temperature of the animal was kept constant (37°C). A cannula was placed in the trachea to ensure a free airway. The jugular vein was cannulated for infusion of fluids and drugs; during surgical preparations 3% bovine albumin in Ringer solution was infused at 10 ml/kg/h. For mean arterial blood pressure (MBP) measurement, a Teflon catheter was placed in the femoral artery (Stoelting Blood Pressure Meter, Wood Dale, IL, United States). After surgical preparations and stabilization of all parameters, a short control period (30 min) was made to obtain baseline for measured parameters. Chymostatin or its solvent (final concentration of DMSO was 0.05%) were administered for 1 h. After cessation of chymostatin infusion, a recovery period (30 min) was made. In the end, the animals were sacrificed by sodium thiopental overdose (iv); and vital life signs (blood pressure, breathing) were monitored until death.

[3] = system: spontaneously hypertensive rats (SHR); assay: Chronic iv treatment, urinary albumin excretion (UAE); conditions: mean ± SEM, n = 5
Protocol: as §1, §2, §3

[4] = adult SHR (SHR-16), day 0 (baseline)
[5] = adult SHR (SHR-16), day 7 of daily iv treatment
[6] = adult SHR (SHR-16), day 14 of daily iv treatment
[7] = young SHR (SHR-6), day 0 (baseline)
[8] = young SHR (SHR-6), day 7 of daily iv treatment
[9] = young SHR (SHR-6), day 14 of daily iv treatment

CC(C)C[C@H](NC(=O)[C@@H](NC(=O)N[C@@H](Cc1ccccc1)C(=O)O)[C@@H]1CCN=C(N)N1)C(=O)N[C@H](C=O)Cc1ccccc1 [CH, chymostatin]
Plasma osmolality ([1]; adult SHR (SHR-16), day 0 (baseline), CH n=5-8, RIY n=5-6, VWIS n=5-6): 307±2 mOsm/l | Plasma K+ concentration [1, 4]: 4.39 ± 0.27 mmol/L | Plasma Na+ concentration [1, 4]: 134.6 ± 2.6 mmol/L | Potassium excretion [1, 4]: 1.28 ± 0.19 µmol/min | Sodium excretion [1, 4]: 1.01 ± 0.13 µmol/min | Total solute excretion [1, 4]: 7.05±0.90 µOsm/min | Plasma osmolality ([1]; adult SHR (SHR-16), day 7 of daily iv CH 2, RIY 7.5, VWIS 12.5 mg/kg/day): 299±2 mOsm/l | Plasma K+ concentration [1, 5]: 4.21 ± 0.10 mmol/L | Plasma Na+ concentration [1, 5]: 130.5 ± 2.3 mmol/L | Potassium excretion [1, 5]: 1.24 ± 0.25 µmol/min | Sodium excretion [1, 5]: 0.77 ± 0.23 µmol/min | Total solute excretion [1, 5]: 7.11±1.34 µOsm/min | Plasma osmolality ([1]; adult SHR (SHR-16), day 14 of daily iv CH 2, RIY 7.5, VWIS 12.5 mg/kg/day): 294±5 mOsm/l | Plasma K+ concentration [1, 6]: 3.95 ± 0.20 mmol/L | Plasma Na+ concentration [1, 6]: 126.1 ± 1.0 mmol/L | Potassium excretion [1, 6]: 1.71 ± 0.15 µmol/min | Sodium excretion [1, 6]: 1.11 ± 0.33 µmol/min | Total solute excretion [1, 6]: 7.04±1.15 µOsm/min | Plasma osmolality ([1]; young SHR (SHR-6), day 0 (baseline), CH n=8-10, RIY n=5, VWIS n=5-6): 303±3 mOsm/l | Plasma K+ concentration [1, 7]: 4.34 ± 0.16 mmol/L | Plasma Na+ concentration [1, 7]: 125.8 ± 2.1 mmol/L | Potassium excretion [1, 7]: 0.48 ± 0.08 µmol/min | Sodium excretion [1, 7]: 0.51 ± 0.09 µmol/min | Total solute excretion [1, 7]: 2.94±0.68 µOsm/min | Plasma osmolality ([1]; young SHR (SHR-6), day 7 of daily iv CH 2, RIY 7.5, VWIS 12.5 mg/kg/day): 297±3 mOsm/l | Plasma K+ concentration [1, 8]: 4.61 ± 0.12 mmol/L | Plasma Na+ concentration [1, 8]: 126.0 ± 2.3 mmol/L | Potassium excretion [1, 8]: 0.95 ± 0.12 µmol/min | Sodium excretion [1, 8]: 0.90 ± 0.12 µmol/min | Total solute excretion [1, 8]: 6.05±1.16 µOsm/min | Plasma osmolality ([1]; young SHR (SHR-6), day 14 of daily iv CH 2, RIY 7.5, VWIS 12.5 mg/kg/day): 295±6 mOsm/l | Plasma K+ concentration [1, 9]: 3.98 ± 0.13 mmol/L | Plasma Na+ concentration [1, 9]: 126.0 ± 1.6 mmol/L | Potassium excretion [1, 9]: 1.01 ± 0.60 µmol/min | Sodium excretion [1, 9]: 0.93 ± 0.47 µmol/min | Total solute excretion [1, 9]: 7.82±0.47 µOsm/min | Mean blood pressure (MBP) after single intravenous infusion [2]: decreased significantly | Urinary albumin excretion (UAE) ([3]; adult SHR, day 0 (baseline, saline)): 0.59 ± 0.33 mg/24h | Urinary albumin excretion (UAE) ([3]; adult SHR, day 7 of daily iv CH 2, RIY 7.5, VWIS 12.5 mg/kg/day): 0.41 ± 0.04 mg/24h | Urinary albumin excretion (UAE) ([3]; adult SHR, day 14 of daily iv CH 2, RIY 7.5, VWIS 12.5 mg/kg/day): 0.84 ± 0.32 mg/24h | Urinary albumin excretion (UAE) ([3]; young SHR, day 0 (baseline, saline)): 0.03 ± 0.01 mg/24h | Urinary albumin excretion (UAE) ([3]; young SHR, day 7 of daily iv CH 2, RIY 7.5, VWIS 12.5 mg/kg/day): 0.07 ± 0.01 mg/24h | Urinary albumin excretion (UAE) ([3]; young SHR, day 14 of daily iv CH 2, RIY 7.5, VWIS 12.5 mg/kg/day): 0.13 ± 0.03 mg/24h
